# Where two headings read alike, the source gives them in different places.
# Experiments:
# [1] = tested on: renal cell carcinoma (RCC) cell lines; assay: XTT cell viability assay, RCC cell lines; format: cell-based
# Protocol: (§1) The […] (XTT) assays were performed as described previously. In summary, for GCT and fibroblast cell lines 5 × 10^3 cells (3 × 10^3 for UC, PCa and RCC cell lines) per 96-well were seeded and different drug concentrations (see Additional file 2: Fig. S2, Additional file 3: Fig. S3) or corresponding solvents were added to the cells the following day. For drug details see Additional file 12: Table S2 C. Each condition was analyzed in four technical replicates and EC50 values were calculated by GraphPad Prism v8.
# 2102EP-R = assay: Flow cytometry apoptosis (Annexin V/PI), 2102EP-R; format: cell-based, Human; details: EC50, 16 h, compared to the parental cell line
# [2] = tested on: EC-R (cisplatin-resistant embryonal carcinoma subclones); assay: XTT cell viability assay, mean per entity EC-R; format: cell-based; details: Homo sapiens, after 48 h
# Protocol: as §1
# GCT cells = assay: Flow cytometry cell cycle (PI), GCT cells; format: cell-based, Human; details: EC50, 16 h
# Protocol: (§2) For Annexin V/PI staining, cells were washed with Annexin V Binding Buffer before being resuspended in 70 µl Annexin V Binding Buffer and 2.5 μl Annexin V FITC-conjugate (both Miltenyi Biotec, Bergisch Gladbach, Germany) and 15 µg PI (Sigma-Aldrich, Taufkirchen, Germany) and incubated in the dark at room temperature for 15 min. 500 µl of Annexin V Binding Buffer was added before measurement. For the cell cycle analysis, cells were washed with PBS (phosphate buffered saline), fixed by ice cold 70% ethanol and stained with 2 µg/ml PI and 200 µg/ml RNaseA (Quiagen, Hilden, Germany 100 mg/ml) in PBS shortly before every measurement. At least 5 × 10^4 cells were counted and analyzed using the MACSQuant software v 2.13.0.
# JAR (CC) = assay: XTT cell viability assay, JAR; format: cell-based; details: Homo sapiens, after 48 h, n = 4, read-out: EC50 colour/symbol code, CC JAR
# Protocol: as §1
# [3] = tested on: PRKCB, PRKD1, HDAC9, CSF1R expression in GCT cells; assay: Quantitative RT-PCR of co-treatment target genes; format: cell-based, Human; details: 0.2 × EC50, 0.5 × EC50 and EC50
# Protocol: Quantitative RT-PCR (qRT-PCR) was performed as described previously. A total amount of 1 µg of RNA was in-vitro transcribed into cDNA by using Oligo(dT)18 Primer and Maxima H Minus Reverse Transcriptase (200 U/µL) (all Thermo Fisher Scientific). qRT-PCR runs were performed on a 384-well C1000 cycler (BioRad, Feldkirchen, Germany). All samples were analyzed in technical triplicates using 7.34 ng of cDNA for each replicate and the SYBR-green-based Luna Universal qPCR Master Mix (New England Biolabs, Frankfurt am Main, Germany). At the end of each run, melting curve analyses were performed. Oligonucleotide sequences are given in the supplement (Additional file 12: Table S2 B).
# [4] = tested on: fibroblasts (MPAF, HVHF2); assay: XTT cell viability assay, fibroblasts; format: cell-based; details: Homo sapiens, Fibroblast; after 48 h, mean
# Protocol: as §1
# [5] = tested on: phosphorylated kinase targets in 2102EP cells; assay: Proteome Profiler Human Phospho-Kinase Array; format: cell-based; details: 16 h
# Protocol: For the detection of phosphorylated kinase targets, the Proteome Profiler Human Phospho-Kinase Array Kit (R&D Systems, Abingdon, UK) was used according to the manufacturer’s instructions. The ChemiDoc Imaging System (Bio-Rad Laboratories, Feldkirchen, Germany) was used for detection. 2102EP cells were harvested after 16 h of treatment with the epi-drugs. Pixel density was analyzed using Fiji ImageJ 1.53c.
# [6] = tested on: prostate cancer (PCa) cell lines; assay: XTT cell viability assay, PCa cell lines; format: cell-based, Human
# Protocol: as §1
# GCT cell lines = assay: XTT cell viability assay, GCT cell lines (pre-screen / summary); format: cell-based, Human; details: for EC50 / effective concentration in words: SE and EC proxies TCam-2 and 2102EP
# Procedure, shortened: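 EC50 values come from XTT viability curves. Each drug concentration, alongside solvent controls, was tested in quadruplicate on cells plated one day earlier at 5 × 10^3 per well.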
# 2102EP (EC) = assay: XTT cell viability assay, 2102EP; format: cell-based; details: Homo sapiens, read-out: EC50 colour/symbol code, EC 2102EP
# Protocol: as §1
# [7] = tested on: YST (yolk-sac tumor) cell lines; assay: XTT cell viability assay, mean per entity YST; format: cell-based; details: Homo sapiens, after 48 h
# Protocol: as §1
# SE (seminoma) cell lines = assay: XTT cell viability assay, mean per entity SE; format: cell-based; details: Homo sapiens, after 48 h
# Protocol: as §1
# [8] = tested on: urothelial carcinoma (UC) cell lines; assay: XTT cell viability assay, UC cell lines; format: cell-based, Human
# Protocol: as §1
# [9] = tested on: CC (choriocarcinoma) cell lines JAR, JEG-3, BeWo; assay: XTT cell viability assay, CC cell lines; format: cell-based; details: Homo sapiens; after 48 h, mean per entity
# Protocol: as §1
# YST (GCT72) = assay: Flow cytometry apoptosis (Annexin V/PI), YST; format: cell-based, Human; details: EC50, 16 h
# Protocol: as §2
# CC (JAR) = assay: Flow cytometry apoptosis (Annexin V/PI), CC; format: cell-based, Human; details: EC50, 16 h
# Protocol: as §2
# fibroblast control cells = assay: Flow cytometry apoptosis (Annexin V/PI), fibroblasts; format: cell-based, Human; details: EC50, 16 h
# Protocol: as §2
# [10] = tested on: H2AK119ub in 2102EP cells; assay: Western blot of histone extracts; format: cell-based, Human; details: after 48 h of treatment
# Protocol: Western Blots were performed as described previously. In total, 20 µg of whole cell protein lysates or 3 µg of histone extract were used for western blotting. β-Actin was used as housekeeper and loading control for whole cell lysates. Western blots of histone extracts were stained with Coomassie Brilliant Blue R 250 (Roth, Karlsruhe, Germany) and total H3 or H4 antibody to verify equal loading. For antibody details, see supplement (Additional file 12: Table S2 D). The ChemiDoc Imaging System (Bio-Rad Laboratories, Feldkirchen, Germany) was used for detection. Pixel density was analyzed using the ‘Image Lab’ software provided by Bio-Rad.
# [11] = Homo sapiens; mean of three cell lines, 48 h
# [12] = Homo sapiens, GCT, cell line not stated, read-out: EC50 concentration used for low dose qRT-PCR
# [13] = Homo sapiens, 48 h, mean of three cell lines
EC50 [7],EC50 (SE (seminoma) cell lines),SMILES,apoptosis induction in 2102EP-R (2102EP-R),EC50 [2],cell cycle phase accumulation in GCT cells (GCT cells),EC50 (JAR (CC)),EC50 [4],"CREB, STAT3 and STAT5 phosphorylation and total levels of β-Catenin and HSP60 [5]",p53 S15 phosphorylation [5],EC50 (GCT cell lines; [12]),"EC50 / effective concentration in words (GCT cell lines; first pre-screen, XTT)",EC50 [9],ERK1/2 phosphorylation [5],"EC50 (2102EP (EC); after 48 h, XTT, n = 4)",other results
6180 nM,12100 nM,CCCc1cc(C)[nH]c(=O)c1CNC(=O)c1cc(-c2ccnc(N3CCN(C)CC3)c2)cc2c1cnn2C(C)C [GSK343],did not induce apoptosis,9410 nM,,1000 to 50000 nM,9790 nM,decreased,,10700 nM,,10400 nM,decreased,1000 to 50000 nM,"CSF1R expression (qRT-PCR) [3]: upregulation; HDAC9 expression (qRT-PCR) [3]: upregulation; apoptosis induction in GCT72 (YST (GCT72)): negligible; EC50 (GCT cell lines; Homo sapiens, GCT, first pre-screen, XTT, read-out: EC50): ≤ 50000 nM; apoptosis induction in JAR (CC (JAR)): negligible"
,,O=C1C(=Cc2cccnc2)C(=O)c2ccccc21 [PRT4165],,,,,,decreased,,,,,decreased,,"EC50 (GCT cell lines; first pre-screen, XTT, read-out: EC50): ≤ 50000 nM; apoptosis induction in fibroblast control cells (fibroblast control cells): only a weak apoptosis induction; H2AK119ub by western blot [10]: decreased H2AK119ub"
6.88 nM,9.48 nM,Cn1cc(CNCC2CCN(c3ncc(C(=O)NO)cn3)CC2)c2ccccc21 [Quisinostat],,7.35 nM,accumulation in the G2/M phase,< 1000 nM,> 50 nM,decreased,no alteration,1.76 nM,nanomolar range,6.94 nM,,< 1000 nM,"EC50 [1, 13]: > 50 nM; PRKCB expression (qRT-PCR) [3]: upregulation; EC50 [6, 13]: 22.2 nM; EC50 ([6]; mean of three cell lines, 48 h): 22.2 nM; EC50 [8, 13]: 17.2 nM; EC50 ([8]; mean of three cell lines, 48 h): 17.2 nM"

SMILES,EC50 [7],EC50 (SE (seminoma) cell lines),apoptosis induction in 2102EP-R (2102EP-R),EC50 [2],cell cycle phase accumulation in GCT cells (GCT cells),EC50 (JAR (CC)),EC50 [4],"CREB, STAT3 and STAT5 phosphorylation and total levels of β-Catenin and HSP60 [5]",p53 S15 phosphorylation [5],EC50 (GCT cell lines; [12]),"EC50 / effective concentration in words (GCT cell lines; first pre-screen, XTT)",EC50 [9],ERK1/2 phosphorylation [5],"EC50 (2102EP (EC); after 48 h, XTT, n = 4)",other results
CN1C(=O)[C@@]23C[C@]4([C@]56C[C@@]78SS[C@@](CO)(C(=O)N7[C@H]5Nc5ccccc56)N(C)C8=O)c5ccccc5N[C@@H]4N2C(=O)[C@]1(CO)SS3 [Chaetocin],98.7 nM,122 nM,did not induce apoptosis,161 nM,accumulation in the G2/M phase,< 1000 nM,138 nM,decreased,increased,173 nM,nanomolar range,,,,"EC50 [1, 11]: 156 nM; PRKD1 expression (qRT-PCR) [3]: upregulation; EC50 [6, 11]: 233 nM; EC50 (2102EP (EC); 48 h): < 1000 nM; EC50 [8, 11]: 99.6 nM"

# Source: paper PMC8742467, “Therapeutical interference with the epigenetic landscape of germ cell tumors: a comparative drug study and new mechanistical insights” (Clinical Epigenetics, 2022)
